In data set [1] the test system is mitogen or antigen stimulated murine or human lymphocytes. Briefly: PBMC proliferation assay (tritiated thymidine incorporation). It is filed as cell-based. The settings on record: for IC50: Homo sapiens, Lymphocyte. How it is done: (§1) Immunomodulatory 3-aminosteroids (FIGS. 3–7 and Table I) were identified in vitro based on their ability to inhibit homo- or hetero-typic aggregation and subsequent proliferation of mitogen or antigen stimulated murine or human lymphocytes. Human or mouse lymphocytes were isolated from peripheral blood by Ficoll-Hypaque as described (Stoeckert et al., (1990) Exp. Hematol. 18. 1164–1170). For mitogen stimulation, 1×10^5 cells per well were plated in varying amounts of 3-aminosteroid compounds and assayed for aggregation and proliferation after twelve hours of stimulation by PHA-PMA mitogens. […] For antigen stimulation, lymphocytes were isolated from BALBc mice which had been sensitized to Aspergillus fumigatus antigen for three weeks and plated at 1×10^5 cells per well with or without 100 units of Aspergillus fulmigatus antigen. Cells were grown for three days and then scored for cellular aggregates and proliferation as described above in the presence or absence of increasing amounts of Compound-B or analogue compounds. […] Similar results were obtained in assays using antigen mediated response to compounds (not shown). […] All of the active compounds shown in Table I as well as rational modifications of these compounds as depicted in FIGS. 8–10 are embodiments of the invention
(Incorporation of labelled thymidine or its analogues reports DNA synthesis.)

Data set [2] has the same test system. Briefly: Lymphocyte aggregation assay (PHA-PMA mitogen stimulated). It is filed as cell-based. The settings on record: aggregates of greater than 100 cells, PHA-PMA stimulation; for minimal effective concentration: Homo sapiens, Lymphocyte, 12 h, read-out: Aggregation Assay Minimum Effective Conc. How it is done: as §1
In data set [3] the test system is D2 naive mice. Briefly: Bronchial hyperresponsiveness in D2 naive mice (APTI). It counts as in vivo, mouse. Particulars: ip, FIG. 14. As for the experimental part:
DBA2, C57BL6 or B6D2F1 mice, five to six weeks of age, were obtained from the National Cancer Institute or Jackson Laboratories. Animals were housed in high-efficiency particulate filtered air laminar flow hoods in a virus and antigen free facility and allowed free access to pelleted rodent chow and water for three to seven days prior to experimental manipulation. The animal facilities were maintained at 22° C. and the light:dark cycle is automatically controlled (10:14 hour cycle).
Phenotyping and efficacy of pretreatment. Animals either received no pretreatment or were sensitized by nasal aspiration of Aspergillus fumigatus antigen to assess the effect on bronchial hyperresponsiveness, bronchoalveolar lavage and serum IgE. Mice were challenged with Aspergillus or saline intranasally (Monday, Wednesday and Friday for three weeks) and phenotyped twenty-four hours after the last dose. The effect of pretreatment by aminosteroids was used to assess the effect of down-regulating the IL-9 pathway in mice. To determine the bronchoconstrictor response, respiratory system pressure was measured at the trachea and recorded before and during exposure to the drug. Mice were anesthetized and instrumented as previously described. (Kleeberger et al., (1990) Am. J. Physiol. 258, L313–320; Levitt et al., (1995) Clin. Exp. Allergy 25, 61–63; Ewart et al., (1995) J. Appl. Physiol. 79, 560–566). Airway responsiveness was measured to one or more of the following: 5-hydroxytryptamine, acetylcholine, atracurium or a substance-P analogue. A simple and repeatable measure of the change in peak inspiratory pressure following bronchoconstrictor challenge was used which has been termed the Airway Pressure Time Index (APTI). The APTI was assessed by the change in peak respiratory pressure integrated from the time of injection until the peak pressure returns to baseline or plateau.
Active compounds identified in vitro were tested in vivo for their ability to suppress airway hyperresponsiveness, lung eosinophilia and serum Ig levels using assays described above. […]

Setting [4] is: tritiated thymidine incorporation, read-out: PBMC Proliferation ASSAY IC50.
[5] abbreviates: FIG. 11 and FIG. 12, mitogen-stimulated lymphocytes, read-out: IC50 for suppression of lymphocyte aggregation and proliferation.
[6] abbreviates: tritiated thymidine incorporation.

The structures appear in SMILES notation. Converted amounts (≈) assume the structure as drawn. Read-outs that look alike come from different tables or passages of the source.

For `COC(=O)CC[C@H](C)C1CCC2C3C(O)C[C@@H]4C[C@@H](NCCN)CC[C@]4(C)C3CC[C@@]21C` (some centres unmarked) [T], in data set [1] (setting [4]), the IC50 came to 2.77 µg/mL (≈ 6.17 µM). Besides, the minimal effective concentration in data set [2] was 10 µg/mL.

Turning to `C[C@H](CC1CCOC1=O)C1CCC2C3CC[C@H]4C[C@@H](N5CCCNCC5)CC[C@]4(C)C3CC[C@@]21C` (some centres unmarked) [Compound-M], the minimal effective concentration in data set [2] was 10 µg/mL.

As for `COC(=O)CC[C@H](C)C1CCC2C3CC[C@@H]4C[C@@H](N)CC[C@]4(C)C3C[C@@H](O)[C@@]21C` (some centres unmarked) [AB], the IC50 in data set [1] (setting [4]) came out at 2.54 µg/mL (≈ 6.26 µM). Further, the minimal effective concentration in data set [2] is 10 µg/mL.

For the compound `COC(=O)CC[C@H](C)C1CCC2C3CC[C@@H]4C[C@@H](NCc5ccccn5)CC[C@]4(C)C3C[C@@H](O)[C@@]21C` (some centres unmarked) [X], the minimal effective concentration in data set [2] came to 10 µg/mL.

In the case of `C[C@@H](CNS(C)(=O)=O)C1CCC2C3CC[C@@H]4C[C@@H](NCCN)CC[C@]4(C)C3CC[C@@]21C` (some centres unmarked) [Compound-F], the IC50 in data set [1] (setting [4]) worked out at 2.88 µg/mL (≈ 6.35 µM).

Take `COC(=O)CC[C@H](C)C1CCC2C3CC[C@@H]4C[C@@H](NCCN5CCCC5)CC[C@]4(C)C3C[C@@H](O)[C@@]21C` (some centres unmarked) [W]: in data set [2], the minimal effective concentration was 10 µg/mL.

In the case of `COC(=O)CC[C@H](C)C1CCC2C3CC[C@@H]4C[C@@H](NCCN)CC[C@]4(C)C3C[C@@H](O)[C@@]21C` (some centres unmarked) [AC], the IC50 in data set [1] (setting [4]) is 0.47 µg/mL (≈ 1.05 µM). Further, in data set [2], the minimal effective concentration was determined as 10 µg/mL.

Regarding `COC(=O)CC[C@H](C)C1CCC2C3C[C@@H](O)[C@@H]4C[C@@H](NCCCOCCCCOCCCN)CC[C@]4(C)C3CC[C@@]21C` (some centres unmarked) [AF], the IC50 in data set [1] (setting [4]) was determined as 2.41 µg/mL (≈ 4.06 µM). The minimal effective concentration in data set [2] was found to be 10 µg/mL.

Take `COC(=O)CC[C@H](C)C1CCC2C3CC[C@@H]4C[C@@H](NCCC5CCCN5C)CC[C@]4(C)C3C[C@@H](O)[C@@]21C` (some centres unmarked) [Z]: the IC50 in data set [1] (setting [4]) was 0.71 µg/mL (≈ 1.37 µM). For the same compound, in data set [2], the minimal effective concentration worked out at 10 µg/mL.

`C[C@@H](CC1CCOC1=O)C1CCC2C3CC[C@@H]4C[C@@H](NCCN)CC[C@]4(C)C3CC[C@@]21C` (mixture of isomers) [Compound-K]: in data set [1] (setting [4]), the IC50 was 0.31 µg/mL (≈ 0.697 µM). The minimal effective concentration in data set [2] is 10 µg/mL.

Take `COC(=O)CC[C@@H](C)C1CCC2C3CC[C@@H]4C[C@@H](NCCN)CC[C@]4(C)C3C[C@H](O)[C@@]21C` (some centres unmarked) [AH]: the IC50 in data set [1] (setting [4]) worked out at 0.1 µg/mL (≈ 0.223 µM). For the same compound, the minimal effective concentration in data set [2] amounted to 1 µg/mL.

Regarding `COC(=O)CC[C@H](C)C1CCC2C3C(CC[C@@]21C)[C@@]1(C)CC[C@H](NCCN)C[C@H]1C[C@@H]3OC(C)=O` (some centres unmarked) [AD], the IC50 in data set [1] (setting [4]) was determined as 0.29 µg/mL (≈ 0.591 µM). Also, in data set [2], the minimal effective concentration turned out to be 10 µg/mL.

Take `C[C@H](CCC(=O)O)C1CCC2C3C(CC[C@@]21C)[C@@]1(C)CC[C@H](NCCN)C[C@H]1C[C@H]3O` (some centres unmarked) [E]: in data set [1] (setting [5]), the IC50 is > 10 µg/mL. Further, the minimal effective concentration in data set [2] is > 10 µg/mL.

`COC(=O)CC[C@H](C)C1CCC2C3CC[C@@H]4C[C@@H](NCCNC(C)C)CC[C@]4(C)C3C[C@@H](O)[C@@]21C` (some centres unmarked) [AA]: in data set [1] (setting [4]), the IC50 stood at 0.42 µg/mL (≈ 0.856 µM). In addition, in data set [2], the minimal effective concentration amounted to 10 µg/mL.

With `CC(C)OC(=O)CC[C@H](C)C1CCC2C3C(O)C[C@@H]4C[C@@H](NCCN)CC[C@]4(C)C3CC[C@@]21C` (some centres unmarked) [U], the IC50 in data set [1] (setting [4]) came out at 0.4 µg/mL (≈ 0.839 µM). Moreover, in data set [2], the “Aggregation Assay Minimum Effective Conc.” value lay in the range of 1 to 10 µg/mL.

Regarding `COC(=O)CC[C@@H](C)C1CCC2C3C(CC[C@@]21C)[C@@]1(C)CC[C@H](N2CCNCC2)C[C@H]1C[C@H]3O` (some centres unmarked) [AE], in data set [1] (setting [4]), the IC50 is 0.28 µg/mL (≈ 0.59 µM). Moreover, in data set [2], the minimal effective concentration came out at 10 µg/mL.

Take `C[C@H](CCC(=O)O)C1CCC2C3CC[C@@H]4C[C@H](NCCN)CC[C@]4(C)C3C[C@H](O)[C@@]21C` (some centres unmarked) [C]: the minimal effective concentration in data set [2] was > 10 µg/mL.

With `COC(=O)CC[C@H](C)C1CCC2C3CC[C@@H]4C[C@@H](NCCNc5ccccc5)CC[C@]4(C)C3C[C@@H](O)[C@@]21C` (some centres unmarked) [Y], the minimal effective concentration in data set [2] is 10 µg/mL.

For `COC(=O)NC[C@@H](C)C1CCC2C3CC[C@H]4C[C@@H](NCCN)CC[C@]4(C)C3CC[C@@]21C` (some centres unmarked) [Compound-H], the IC50 in data set [1] (setting [4]) was determined as 0.26 µg/mL (≈ 0.6 µM). Further, the “PBMC Proliferation ASSAY IC50” value in data set [1] (setting [6]) turned out to be 0.44 µg/mL.

Turning to `COC(=O)CC[C@H](C)C1CCC2C3CC[C@@H]4C[C@@H](NCCN)CC[C@]4(C)C3CC[C@@]21C` (some centres unmarked) [S], the “toxicity remark in PBMC Proliferation ASSAY” value in data set [1] was “toxic”. Moreover, the IC50 in data set [1] (setting [4]) was < 0.1 µg/mL. The minimal effective concentration in data set [2] amounted to 10 µg/mL.

Turning to `CC(C)OC(=O)CC[C@H](C)C1CCC2C3C(O)C[C@@H]4C[C@@H](NCCN)CC[C@]4(C)C3CC[C@@]21C` (some centres unmarked) [V], the “PBMC Proliferation ASSAY IC50” value in data set [1] (setting [6]) was found to be 0.41 µg/mL. In addition, the “Aggregation Assay Minimum Effective Conc.” value in data set [2] is 10 µg/mL.

Consider `COC(=O)CC[C@H](C)C1CCC2C3CC[C@@H]4C[C@@H](NCCCNCCCCNCCCN)CC[C@]4(C)C3CC[C@@]21C` (some centres unmarked) [Compound-D], for which the IC50 in data set [1] (setting [5]) is 10 µg/mL (≈ 17.4 µM). In addition, the minimal effective concentration in data set [2] is 10 µg/mL. Besides, in data set [3], the “suppression of bronchial hyperresponsiveness” value is recorded as “effective in suppressing bronchial hyperresponsiveness”.

As for `COC(=O)CC[C@H](C)C1CCC2C3CC(O)[C@@H]4C[C@@H](NCCNC(C)C)CC[C@]4(C)C3CC[C@@]21C` (some centres unmarked) [R], the IC50 in data set [1] (setting [4]) was determined as 0.24 µg/mL (≈ 0.489 µM).

Turning to `C[C@@H](CNS(C)(=O)=O)C1CCC2C3CC[C@@H]4C[C@@H](NCCN)CC[C@]4(C)C3CC[C@@]21C` (some centres unmarked) [Compound-G], in data set [2], the minimal effective concentration was found to be 10 µg/mL.

Take `C[C@@H](COc1ccccn1)C1CCC2C3CC[C@@H]4C[C@@H](NCCN)CC[C@]4(C)C3CC[C@@]21C` (some centres unmarked) [Compound-O]: in data set [1] (setting [6]), the “PBMC Proliferation ASSAY IC50” value was found to be 0.25 µg/mL. Moreover, the “Aggregation Assay Minimum Effective Conc.” value in data set [2] turned out to be 10 µg/mL.

Take `C[C@@H](COc1ccccn1)C1CCC2C3CC[C@@H]4C[C@@H](N5CCNCC5)CC[C@]4(C)C3CC[C@@]21C` (some centres unmarked) [Compound-P]: the minimal effective concentration in data set [2] was > 10 µg/mL.

Take `C[C@H](CC1CCOC1=O)C1CCC2C3CC[C@H]4C[C@@H](NCCN)CC[C@]4(C)C3CC[C@@]21C` (some centres unmarked) [Compound-J]: in data set [1] (setting [4]), the IC50 amounted to 0.03 µg/mL (≈ 0.0675 µM). The minimal effective concentration in data set [2] came to 1 µg/mL.

Regarding `COC(=O)CC[C@@H](C)C1CCC2C3C[C@@H](O)[C@H]4C[C@H](NCCN)CC[C@]4(C)C3CC[C@@]21C` (some centres unmarked) [AG], the minimal effective concentration in data set [2] came to 10 µg/mL.

In the case of `C[C@@H](COc1ccccn1)C1CCC2C3CC[C@@H]4C[C@@H](NCCN)CC[C@]4(C)C3CC[C@@]21C` (some centres unmarked) [Compound-N], in data set [1] (setting [6]), the “PBMC Proliferation ASSAY IC50” value worked out at 0.06 µg/mL. For the same compound, the “Aggregation Assay Minimum Effective Conc.” value in data set [2] was 1 to 10 µg/mL.
